# According to patent US9724355B2, “Fulvestrant compositions and methods of use” (SHIMODA BIOTECH (PTY) LTD, priority 2010, dated 2017):
# Assay: Fulvestrant aqueous solubility in the presence and absence of cyclodextrins (excess drug, shaken 24 h, filtered, HPLC)
# Assay type: physicochemical
# Conditions: for Quantity of Fulvestrant Diluted Run 2 / Average Concentration / Quantity of Fulvestrant Diluted Run 1: diluted sample; for True Fulvestrant Concentration: 22° C., 24 h
# Method: The HPLC system used for the chromatographic determination of fulvestrant consisted of a Waters 600E quaternary gradient pump, a Waters 717plus WISP auto-sampler and a Waters 2487 Dual A, Absorbance detector. Separation was performed using a Phenomenex Luna C18 column (250×4.6 mm; 5 urn) (Phenomenex, Torrance, Calif.) (supplied by Separations, South Africa) and a mobile phase consisting of 50% MeCN:22.5% ddH2O :27.5% MeOH. The mobile phase was degassed and filtered prior to use. […] Sample run times were 15 minutes. The UV detector wavelength was set to 280 nm.
# 1 mL of each of the following aqueous solutions was prepared containing 0; 25; 50; 75 and 100 mg/mL ACD in ddHiO. Excess fulvestrant was added to each of these solutions and the samples were shaken for 24 hours on an orbital shaker at 200 rpm and at 22° C. room temperature. Excess fulvestrant was present in all samples at all times. After 24-hours, the samples were filtered through 0.45 μm syringe tip filters, diluted according to requirements and assayed by HPLC.
# 1 mL of each of the following aqueous solutions was prepared containing 0; 5; 7.5; 10 and 15 mg/mL BCD in ddH2O. Excess fulvestrant was added to each of these solutions and the samples were shaken for 24 hours on an orbital shaker at 200 rpm and at 22° C. room temperature. Excess fulvestrant was present in all samples at all times. After 24-hours, the samples were filtered through 0.45 μm syringe tip filters, diluted according to requirements and assayed by HPLC.
# 1 mL of each of the following aqueous solutions was prepared containing 0; 50; 100; 150; 200; 250; 300; 350 and 400 mg/mL MBCD in ddH2O. Excess fulvestrant was added to each of these solutions and the samples were shaken for 24 hours on an orbital shaker at 200 rpm and at 22° C. room temperature. Excess fulvestrant was present in all samples at all times. After 24-hours, the samples were filtered through 0.45 μm syringe tip filters, diluted according to requirements and assayed by HPLC.
# 1 mL of each of the following aqueous solutions was prepared containing 0; 50; 100; 150; 200; 250; 300; 350 and 400 mg/mL HPBCD in ddH2O. Excess fulvestrant was added to each of these solutions and the samples were shaken for 24 hours on an orbital shaker at 200 rpm and at 22° C. room temperature. Excess fulvestrant was present in all samples at all times. After 24-hours, the samples were filtered through 0.45 μm syringe tip filters, diluted according to requirements and assayed by HPLC.
# 1 mL of each of the following aqueous solutions was prepared containing 0; 50; 100; 150; 200; 250; 300; 350 and 400 mg/mL SBEBCD in ddH2O. Excess fulvestrant was added to each of these solutions and the samples were shaken for 24 hours on an orbital shaker at 200 rpm and at 22° C. room temperature. Excess fulvestrant was present in all samples at all times. After 24-hours, the samples were filtered through 0.45 μm syringe tip filters, diluted according to requirements and assayed by HPLC.
# 1 mL of each of the following aqueous solutions was prepared containing 0; 50; 100; 150; and 200 mg/mL GCD in ddHO. Excess fulvestrant was added to each of these solutions and the samples were shaken for 24 hours on an orbital shaker at 200 rpm and at 22° C. room temperature. Excess fulvestrant was present in all samples at all times. After 24-hours, the samples were filtered through 0.45 μm syringe tip filters, diluted according to requirements and assayed by HPLC.
# 1 mL of each of the following aqueous solutions was prepared containing 0; 50; 100; 150; 200; 250; 300; 350 and 400 mg/mL HPGCD in ddH2O. Excess fulvestrant was added to each of these solutions and the samples were shaken for 24 hours on an orbital shaker at 200 rpm and at 22° C. room temperature. Excess fulvestrant was present in all samples at all times. After 24-hours, the samples were filtered through 0.45 μm syringe tip filters, diluted according to requirements and assayed by HPLC.
structure (smiles),measurement,setting,value
"C[C@]12CC[C@@H]3c4ccc(O)cc4C[C@@H](CCCCCCCCC[S+]([O-])CCCC(F)(F)C(F)(F)F)[C@H]3[C@@H]1CC[C@@H]2O (stereo partly drawn) [Fulvestrant, 7-alpha-[9-(4,4,5,5,5-pentafluoropentylsulphinyl)nonyl]estra-1,3,5-(10)-triene-3,17-beta-diol]",Quantity of Fulvestrant Diluted Run 2,150 mg/mL HPBCD,93.50 µg/mL
same,True Fulvestrant Concentration,150 mg/mL HPGCD in ddH2O,0.203 mg/mL
same,Average Concentration,150 mg/mL HPGCD,220.81 µg/mL
same,Quantity of Fulvestrant Diluted Run 1,150 mg/mL HPGCD,220.67 µg/mL
same,Quantity of Fulvestrant Diluted Run 2,150 mg/mL HPGCD,220.94 µg/mL
same,True Fulvestrant Concentration,150 mg/mL MBCD in ddH2O,6.744 mg/mL
same,Average Concentration,150 mg/mL MBCD,67.44 µg/mL
same,Quantity of Fulvestrant Diluted Run 1,150 mg/mL MBCD,67.40 µg/mL
same,Quantity of Fulvestrant Diluted Run 2,150 mg/mL MBCD,67.47 µg/mL
same,True Fulvestrant Concentration,150 mg/mL SBEBCD in ddH2O,0.273 mg/mL
same,Average Concentration,150 mg/mL SBEBCD,272.92 µg/mL
same,Quantity of Fulvestrant Diluted Run 1,150 mg/mL SBEBCD,273.01 µg/mL
same,Quantity of Fulvestrant Diluted Run 2,150 mg/mL SBEBCD,272.83 µg/mL
same,True Fulvestrant Concentration,200 mg/mL GCD in ddH2O,<0.010 mg/mL
same,Average Concentration,200 mg/mL GCD,<10.00 µg/mL
same,Quantity of Fulvestrant Diluted Run 1,200 mg/mL GCD,<10.000 µg/mL
same,Quantity of Fulvestrant Diluted Run 2,200 mg/mL GCD,<10.000 µg/mL
same,True Fulvestrant Concentration,200 mg/mL HPBCD in ddH2O,1.563 mg/mL
same,Average Concentration,200 mg/mL HPBCD,99.30 µg/mL
same,Quantity of Fulvestrant Diluted Run 1,200 mg/mL HPBCD,156.30 µg/mL
same,Quantity of Fulvestrant Diluted Run 2,200 mg/mL HPBCD,42.30 µg/mL
same,True Fulvestrant Concentration,200 mg/mL HPGCD in ddH2O,0.300 mg/mL
same,Average Concentration,200 mg/mL HPGCD,334.71 µg/mL
same,Quantity of Fulvestrant Diluted Run 1,200 mg/mL HPGCD,334.75 µg/mL
same,Quantity of Fulvestrant Diluted Run 2,200 mg/mL HPGCD,334.66 µg/mL
same,True Fulvestrant Concentration,200 mg/mL MBCD in ddH2O,10.694 mg/mL
same,Average Concentration,200 mg/mL MBCD,106.94 µg/mL
same,Quantity of Fulvestrant Diluted Run 1,200 mg/mL MBCD,106.87 µg/mL
same,Quantity of Fulvestrant Diluted Run 2,200 mg/mL MBCD,107.01 µg/mL
same,True Fulvestrant Concentration,200 mg/mL SBEBCD in ddH2O,0.399 mg/mL
same,Average Concentration,200 mg/mL SBEBCD,398.81 µg/mL
same,Quantity of Fulvestrant Diluted Run 1,200 mg/mL SBEBCD,398.52 µg/mL
same,Quantity of Fulvestrant Diluted Run 2,200 mg/mL SBEBCD,399.09 µg/mL
same,True Fulvestrant Concentration,250 mg/mL HPBCD in ddH2O,2.377 mg/mL
same,Average Concentration,250 mg/mL HPBCD,118.84 µg/mL
same,Quantity of Fulvestrant Diluted Run 1,250 mg/mL HPBCD,118.71 µg/mL
same,Quantity of Fulvestrant Diluted Run 2,250 mg/mL HPBCD,118.97 µg/mL
same,True Fulvestrant Concentration,250 mg/mL HPGCD in ddH2O,0.215 mg/mL
same,Average Concentration,250 mg/mL HPGCD,473.84 µg/mL
same,Quantity of Fulvestrant Diluted Run 1,250 mg/mL HPGCD,474.68 µg/mL
same,Quantity of Fulvestrant Diluted Run 2,250 mg/mL HPGCD,472.99 µg/mL
same,True Fulvestrant Concentration,250 mg/mL MBCD in ddH2O,17.429 mg/mL
same,Average Concentration,250 mg/mL MBCD,174.29 µg/mL
same,Quantity of Fulvestrant Diluted Run 1,250 mg/mL MBCD,174.30 µg/mL
same,Quantity of Fulvestrant Diluted Run 2,250 mg/mL MBCD,174.28 µg/mL
same,True Fulvestrant Concentration,250 mg/mL SBEBCD in ddH2O,0.609 mg/mL
same,Average Concentration,250 mg/mL SBEBCD,304.74 µg/mL
same,Quantity of Fulvestrant Diluted Run 1,250 mg/mL SBEBCD,304.32 µg/mL
same,Quantity of Fulvestrant Diluted Run 2,250 mg/mL SBEBCD,305.15 µg/mL
same,True Fulvestrant Concentration,300 mg/mL HPBCD in ddH2O,3.312 mg/mL
same,Average Concentration,300 mg/mL HPBCD,165.62 µg/mL
